Results reported in ChEMBL document CHEMBL5360672, “Identification of Novel Dual-Target Estrogen Receptor α Degraders with Tubulin Inhibitory Activity for the Treatment of Endocrine-Resistant Breast Cancer” (J Med Chem, 2023).
Active and inactive are the calls of the source. The rule behind the calls is not given here.

What was measured:
[1] = test system: MCF7; assay: Antiproliferative activity against ERalpha positive human MCF7 cells assessed as inhibition of cell proliferation incubated for 72 hrs by CCK8 assay; format: functional, cell-based; details: MCF7, 72 h
[2] = species: Homo sapiens; assay: Selectivity ratio of relative binding affinity for human ERalpha to relative binding affinity to human ERbeta
[3] = target: T1, Estrogen receptor (Homo sapiens) (UniProt P03372); assay: Induction of ERalpha degradation in human MCF7 cells at 5 uM incubated for 24 hrs by Western blot analysis; format: cell-based
T1 sequence (whole entry): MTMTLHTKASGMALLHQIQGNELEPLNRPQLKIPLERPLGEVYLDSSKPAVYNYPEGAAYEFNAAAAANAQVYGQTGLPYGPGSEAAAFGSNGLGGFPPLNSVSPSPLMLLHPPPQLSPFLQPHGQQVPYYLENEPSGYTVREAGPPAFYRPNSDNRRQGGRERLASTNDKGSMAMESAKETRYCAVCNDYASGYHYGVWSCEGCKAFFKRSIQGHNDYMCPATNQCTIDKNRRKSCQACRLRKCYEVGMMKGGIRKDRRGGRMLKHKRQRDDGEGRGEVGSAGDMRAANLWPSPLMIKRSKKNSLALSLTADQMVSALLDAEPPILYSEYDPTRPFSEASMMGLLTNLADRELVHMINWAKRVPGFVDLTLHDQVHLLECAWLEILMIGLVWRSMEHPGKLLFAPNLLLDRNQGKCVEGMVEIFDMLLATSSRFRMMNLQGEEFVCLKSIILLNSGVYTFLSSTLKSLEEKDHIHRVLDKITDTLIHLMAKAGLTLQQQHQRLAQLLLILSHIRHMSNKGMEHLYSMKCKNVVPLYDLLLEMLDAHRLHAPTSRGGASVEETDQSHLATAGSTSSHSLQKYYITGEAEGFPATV

[4] = target: Estrogen receptor beta (Homo sapiens) (UniProt Q92731); assay: Binding affinity to human ERbeta assessed as relative binding affinity incubated under vibration for 1 min followed by 2 hrs incubation under dark condition by fluorescence polarization assay relative to estradiol; details: time 121.0 min
[5] = test system: T47D; assay: Antiproliferative activity against ERalpha positive human T47D cells assessed as inhibition of cell proliferation incubated for 72 hrs by CCK8 assay; format: functional, cell-based
[6] = Selectivity index, ratio of IC50 for cytotoxicity against human MCF-10A cells to IC50 for antiproliferative activity against human MCF7 cells; format: toxicity, cell-based; details: MCF-10A cells and MCF7 cells, read-out: Ratio IC50
[7] = Cytotoxicity against human MCF-10A cells assessed as inhibition of cell proliferation incubated for 72 hrs by CCK8 assay; format: toxicity, cell-based
[8] = test system: MDA-MB-231; assay: Antiproliferative activity against ERalpha negative human MDA-MB-231 cells assessed as inhibition of cell proliferation incubated for 72 hrs by CCK8 assay; format: functional, cell-based; details: MDA-MB-231, 72 h
[9] = target: T1, Estrogen receptor (Homo sapiens); assay: Binding affinity to human ERalpha assessed as relative binding affinity incubated under vibration for 1 min followed by 2 hrs incubation under dark condition by fluorescence polarization assay relative to estradiol; details: time 121.0 min
[10] = target: T2, Tubulin (Homo sapiens) (UniProt P68371+Q9H4B7+P0DPH7+P68366+Q13509+Q71U36+P04350+Q3ZCM7+P07437+P68363+Q9BQE3+Q6PEY2+Q13885+Q9BVA1+Q9BUF5); assay: Inhibition of tubulin polymerization (unknown origin) at 30 uM incubated for 60 mins by microplate reader analysis; format: protein-complex assay
[11] = Antitumor activity against human Tamoxifen-resistant LCC2 cells xenografted in Balb/c nude mouse assessed as tumor growth inhibition at 2 mg/kg, ip administered every other day for 20 days relative to control; format: functional; details: Tamoxifen-resistant LCC2 cell, 480 h, time 20 day, read-out: TGI
[12] = test system: MCF7; assay: Antitumor activity against human MCF7 cells xenografted in Balb/c nude mouse assessed as tumor growth inhibition at 2 mg/kg, ip administered every other day for 20 days relative to control; format: functional; details: MCF7, 480 h, time 20 day, read-out: TGI
[13] = test system: MCF7; assay: Antitumor activity against human MCF7 cells xenografted in Balb/c nude mouse assessed as tumor growth inhibition at 4 mg/kg, ip administered every other day for 20 days relative to control; format: functional; details: MCF7, 480 h, time 20 day, read-out: TGI
[14] = Antitumor activity against human Tamoxifen-resistant LCC2 cells xenografted in Balb/c nude mouse assessed as tumor growth inhibition at 4 mg/kg, ip administered every other day for 20 days relative to control; format: functional; details: Tamoxifen-resistant LCC2 cell, 480 h, time 20 day, read-out: TGI
[15] = target: T2, Tubulin (Homo sapiens); assay: Disruption of microtubule network in human LCC2 cells assessed as chaotic microtubule network at 4 uM incubated for 48 hrs by DAPI staining based confocal laser scanning microscopic analysis; format: cell-based
[16] = test system: Mus musculus; assay: In vivo induction of ERalpha degradation in BALB/c nude mouse xenografted with human tamoxifen-resistant LCC2 cells assessed as decrease in ERalpha expression in tumor at 2 mg/kg, ip administered every other day for 20 days by Western blot analysis; format: functional, organism-based; details: time 20.0 day
[17] = test system: Mus musculus; assay: In vivo induction of ERalpha degradation in BALB/c nude mouse xenografted with human MCF7 cells assessed as decrease in ERalpha expression in tumor at 2 to 4 mg/kg, ip administered every other day for 20 days by Western blot analysis; format: functional, organism-based; details: dose 2-4 mg/kg, time 20.0 day
[18] = Toxicity in Balb/c nude mouse xenografted with human MCF7 cells assessed as effect on heart morphology at 2 to 4 mg/kg, ip administered every other day for 20 days by H&E staining based analysis; format: organism-based; details: in vivo, 480 h, dose 2-4 mg/kg, time 20 day
[19] = Antiproliferative activity against human Tamoxifen-resistant LCC2 cells assessed as inhibition of cell proliferation incubated for 72 hrs by CCK8 assay; format: functional, cell-based
[20] = test system: MCF7; assay: Antitumor activity against human MCF7 cells xenografted in Balb/c nude mouse assessed as reduction in Ki67 positive cells at 2 to 4 mg/kg, ip administered every other day for 20 days by immunohistochemistry analysis; format: functional, organism-based; details: dose 2-4 mg/kg, time 20.0 day
[21] = Toxicity in Balb/c nude mouse xenografted with human MCF7 cells assessed as body weight loss at 2 to 4 mg/kg, ip administered every other day for 20 days; format: organism-based; details: in vivo, 480 h, dose 2-4 mg/kg, time 20 day
[22] = test system: T47D; assay: Antiproliferative activity against human T47D cells harboring ERalpha D538G mutant assessed as inhibition of cell proliferation incubated for 72 hrs by CCK8 assay; format: functional, cell-based
[23] = target: T1, Estrogen receptor (Homo sapiens); assay: Induction of ERalpha degradation in human MCF7 cells incubated for 6 to 24 hrs by Western blot analysis; format: cell-based; details: dose 0.5-5 µM, time 6-24 hrs
[24] = target: T1, Estrogen receptor (Homo sapiens); assay: Induction of ERalpha degradation in human MCF7 cells at 5 uM incubated for 24 hrs by Western blot analysis relative to SeCN-OBHSA derivatives; format: cell-based
[25] = target: T1, Estrogen receptor (Homo sapiens); assay: Induction of ERalpha degradation in human Tamoxifen-resistant LCC2 cells at 0.5 uM incubated for 6 to 24 hrs by Western blot analysis; format: cell-based; details: Tamoxifen-resistant LCC2 cell, time 6-24 hrs
[26] = target: T2, Tubulin (Homo sapiens); assay: Disruption of microtubule network in human MCF7 cells assessed as chaotic microtubule network at 2 uM incubated for 48 hrs by DAPI staining based confocal laser scanning microscopic analysis; format: cell-based
[27] = test system: Estrogen receptor (Homo sapiens), P03372 [Y537S]; assay: Induction of ERalpha degradation in human T47D cells harboring ERalpha Y537S mutant at 0.5 to 5 uM incubated for 24 hrs by Western blot analysis; format: cell-based; details: dose 0.5-5 µM
[28] = target: T1, Estrogen receptor (Homo sapiens); assay: Induction of ERalpha degradation in human MCF7 cells at 5 uM incubated for 24 hrs in the presence of MG-132 by Western blot analysis; format: cell-based
[29] = target: T2, Tubulin (Homo sapiens); assay: Disruption of microtubule network in human LCC2 cells assessed as ruptured microtubule network at 4 uM incubated for 48 hrs by DAPI staining based confocal laser scanning microscopic analysis; format: cell-based
[30] = test system: Tamoxifen-resistant LCC2 cell; assay: Antitumor activity against human Tamoxifen-resistant LCC2 cells xenografted in Balb/c nude mouse assessed as reduction in Ki67 positive cells at 2 mg/kg, ip administered every other day for 20 days by immunohistochemistry analysis; format: functional, organism-based; details: time 20.0 day
[31] = test system: Estrogen receptor (Homo sapiens), P03372 [D538G]; assay: Induction of ERalpha degradation in human T47D cells harboring ERalpha D538G mutant at 0.5 to 5 uM incubated for 24 hrs by Western blot analysis; format: cell-based; details: dose 0.5-5 µM
[32] = target: T2, Tubulin (Homo sapiens); assay: Disruption of microtubule network in human MCF7 cells assessed as ruptured microtubule network at 2 uM incubated for 48 hrs by DAPI staining based confocal laser scanning microscopic analysis; format: cell-based
[33] = test system: T47D; assay: Antiproliferative activity against human T47D cells harboring ERalpha Y537S mutant assessed as inhibition of cell proliferation incubated for 72 hrs by CCK8 assay; format: functional, cell-based
[34] = target: T1, Estrogen receptor (Homo sapiens); assay: Induction of ERalpha degradation in human MCF7 cells at 1 uM incubated for 6 to 24 hrs by Western blot analysis; format: cell-based; details: time 6-24 hrs
[35] = Toxicity in Balb/c nude mouse xenografted with human MCF7 cells assessed as effect on kidney morphology at 2 to 4 mg/kg, ip administered every other day for 20 days by H&E staining based analysis; format: organism-based; details: in vivo, 480 h, dose 2-4 mg/kg, time 20 day
[36] = Toxicity in Balb/c nude mouse xenografted with human MCF7 cells assessed as effect on liver morphology at 2 to 4 mg/kg, ip administered every other day for 20 days by H&E staining based analysis; format: organism-based; details: in vivo, 480 h, dose 2-4 mg/kg, time 20 day

Sequence of Estrogen receptor beta (Homo sapiens) (Q92731 whole entry): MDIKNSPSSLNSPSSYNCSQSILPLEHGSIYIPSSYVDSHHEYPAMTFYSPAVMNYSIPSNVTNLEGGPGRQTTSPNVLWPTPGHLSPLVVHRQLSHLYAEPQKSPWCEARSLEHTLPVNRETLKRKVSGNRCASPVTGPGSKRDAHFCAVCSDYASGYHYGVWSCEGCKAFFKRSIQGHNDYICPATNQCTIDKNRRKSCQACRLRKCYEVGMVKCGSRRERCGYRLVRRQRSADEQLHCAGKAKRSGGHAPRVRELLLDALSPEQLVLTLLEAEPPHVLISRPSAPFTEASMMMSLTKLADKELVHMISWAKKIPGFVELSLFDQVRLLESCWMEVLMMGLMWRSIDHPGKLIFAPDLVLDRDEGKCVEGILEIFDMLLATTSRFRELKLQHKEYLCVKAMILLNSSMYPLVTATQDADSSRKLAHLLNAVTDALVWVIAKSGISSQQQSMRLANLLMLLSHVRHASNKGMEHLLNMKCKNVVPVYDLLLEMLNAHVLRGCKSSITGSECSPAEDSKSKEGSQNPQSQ
Sequence of Estrogen receptor (Homo sapiens), P03372 [Y537S] (P03372 whole entry Y537S): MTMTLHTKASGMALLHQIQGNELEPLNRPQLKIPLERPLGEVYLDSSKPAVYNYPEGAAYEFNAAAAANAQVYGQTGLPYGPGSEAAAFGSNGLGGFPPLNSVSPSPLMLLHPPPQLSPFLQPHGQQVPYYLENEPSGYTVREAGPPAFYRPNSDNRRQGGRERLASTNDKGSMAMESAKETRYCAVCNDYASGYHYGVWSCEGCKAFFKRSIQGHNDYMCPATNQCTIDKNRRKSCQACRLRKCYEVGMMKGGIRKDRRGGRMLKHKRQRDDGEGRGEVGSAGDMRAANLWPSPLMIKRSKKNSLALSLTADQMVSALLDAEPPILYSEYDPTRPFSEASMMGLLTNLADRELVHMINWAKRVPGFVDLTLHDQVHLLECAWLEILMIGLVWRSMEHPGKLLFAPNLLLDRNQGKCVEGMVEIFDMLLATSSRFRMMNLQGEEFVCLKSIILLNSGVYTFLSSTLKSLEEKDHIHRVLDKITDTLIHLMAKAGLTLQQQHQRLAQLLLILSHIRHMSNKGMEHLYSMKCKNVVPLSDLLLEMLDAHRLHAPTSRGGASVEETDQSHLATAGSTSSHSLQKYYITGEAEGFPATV
Sequence of Estrogen receptor (Homo sapiens), P03372 [D538G] (P03372 whole entry D538G): as the sequence (P03372 whole entry Y537S) above, with S537Y, D538G counted along it

**Q.** Which results are given for `N#C[Se]CCCCCC(=O)Nc1ccccc1`?
**A.** IC50 [1]: 3.54 µM; Selectivity ratio [2]: 7; Activity [3]: inactive; RBA [4]: 0.01%; IC50 [5]: 4.28 µM; selectivity ratio [6]: 0.64; IC50 at 72 h [7]: 2.26 µM; IC50 [8]: 0.36 µM; RBA [9]: 0.04%; tubulin polymerization inhibition (active/not active) [10]: Active

**Q.** Which results are given for `C[C@]12CC[C@@H]3c4ccc(O)cc4C[C@@H](CCCCCCCCC[S+]([O-])CCCC(F)(F)C(F)(F)F)[C@H]3[C@@H]1CC[C@@H]2O` (some centres not stated) [FULVESTRANT]?
**A.** IC50 [1]: 0.12 µM; inhibition in vivo at 2 mg/kg [11]: 45.8%; inhibition in vivo at 2 mg/kg [12]: 64.1%; IC50 at 72 h [7]: > 100 µM; IC50 [8]: > 100 µM

**Q.** Which inhibition in vivo at 4 mg/kg [13] does the source give for `CC/C(=C(\c1ccccc1)c1ccc(OCCN(C)C)cc1)c1ccccc1` [TAMOXIFEN] here?
**A.** 71.4%

**Q.** What about the inhibition in vivo at 4 mg/kg [14] of the same compound?
**A.** 6.25%

**Q.** Which Activity [15] does the source give for `CCN(c1ccccc1F)S(=O)(=O)C1CC2OC1C(c1ccc(NC(=O)CCCCC[Se]C#N)cc1)=C2c1ccc(O)cc1` (configuration not stated) here?
**A.** Active

**Q.** What about the Activity [16] of the same compound?
**A.** Active

**Q.** And the IC50 [1]?
**A.** 0.09 µM

**Q.** And the Activity [17]?
**A.** Active

**Q.** What about the Activity [18] of the same compound?
**A.** Non-Toxic

**Q.** What about the IC50 [19] of the same compound?
**A.** 2.81 µM

**Q.** What about the Selectivity ratio [2] of the same compound?
**A.** 15.8

**Q.** And the Activity [20]?
**A.** Active

**Q.** And the inhibition in vivo at 4 mg/kg [13]?
**A.** 79.3%

**Q.** What about the Activity [21] of the same compound?
**A.** Non-Toxic

**Q.** What about the Activity [3] of the same compound?
**A.** Active

**Q.** What about the RBA [4] of the same compound?
**A.** 0.46%

**Q.** What about the IC50 [22] of the same compound?
**A.** 3 µM

**Q.** What about the Activity [23] of the same compound?
**A.** Dose-Dependent Effect

**Q.** What about the Activity [24] of the same compound?
**A.** Active

**Q.** What about the Activity [25] of the same compound?
**A.** 100%

**Q.** And the inhibition in vivo at 2 mg/kg [11]?
**A.** 56.9%

**Q.** And the Activity [26]?
**A.** Active

**Q.** What about the Activity [27] of the same compound?
**A.** Active

**Q.** What about the Activity [28] of the same compound?
**A.** inactive

**Q.** What about the Activity [29] of the same compound?
**A.** Active

**Q.** What about the IC50 [5] of the same compound?
**A.** 2.82 µM

**Q.** What about the selectivity ratio [6] of the same compound?
**A.** 203

**Q.** What about the Activity [30] of the same compound?
**A.** Active

**Q.** What about the inhibition in vivo at 2 mg/kg [12] of the same compound?
**A.** 69.1%

**Q.** And the IC50 at 72 h [7]?
**A.** 18.3 µM

**Q.** What about the Activity [31] of the same compound?
**A.** Active

**Q.** And the Activity [32]?
**A.** Active

**Q.** What about the IC50 [33] of the same compound?
**A.** 1.44 µM

**Q.** What about the Activity [34] of the same compound?
**A.** Active

**Q.** What about the Activity [35] of the same compound?
**A.** Non-Toxic

**Q.** What about the Activity [36] of the same compound?
**A.** Non-Toxic

**Q.** What about the IC50 [8] of the same compound?
**A.** 3.7 µM

**Q.** And the RBA [9]?
**A.** 7.26%

**Q.** And the “tubulin polymerization inhibition (active/not active)” value [10]?
**A.** Active
